These results are taken from ChEMBL document CHEMBL5236603, “Discovery of mobocertinib, a potent, oral inhibitor of EGFR exon 20 insertion mutations in non-small cell lung cancer” (Bioorg Med Chem Lett, 2023).

Series [1] can be described thus: Cmax in CD-1 mouse at 10 mg/kg, po by LC/MS/MS analysis. To be noted: in vivo. The class given is ADME, organism-based. On the set-up: dose 10 mg/kg, route po.
The target of series [2] is Epidermal growth factor receptor (Homo sapiens, UniProt P00533). In words: Inhibition of […]-induced EGFR phosphorylation in human A549 cells pretreated for 2 hrs followed by EGF stimulation by immune assay. It is filed as cell-based.
Series [3] is described as follows: Inhibition of mouse EGFR D770_N771insNPG mutant stably expressed in mouse BaF3 cells assessed as cell viability incubated for 3 days by Cell Titer-Glo assay. Conditions: BaF3, 72 h. The class given is cell-based. For orientation: In ATP-based viability assays light output follows the ATP content of the culture.
A short description of series [4]: AUClast in CD-1 mouse at 10 mg/kg, po by LC/MS/MS analysis. It is filed as ADME, organism-based. On the set-up: dose 10 mg/kg, route po. To be noted: in vivo.
The nature of series [5]: Cmax in CD-1 rat at 10 mg/kg, po by LC/MS/MS analysis. The class given is ADME, organism-based. Conditions: in vivo. Details: dose 10 mg/kg, route po.
Series [6] is described as follows: AUClast in CD-1 rat at 10 mg/kg, po by LC/MS/MS analysis. The class given is ADME, organism-based. Details: dose 10 mg/kg, route po. To be noted: in vivo.
Series [7] has as its system BaF3. In words: In vivo antitumor activity against mouse BaF3 cells expressing EGFR exon 20 insertion (ex20ins) ASV implanted in SCID mouse assessed as tumor growth inhibition at 100 mg/kg, po administered for 7 consecutive days. Conditions: BaF3, 168 h, time 7 day, read-out: TGI. The class given is functional.
Series [8] can be described thus: Inhibition of mouse EGFR V769_D770insASV mutant stably expressed in mouse BaF3 cells assessed as cell viability incubated for 3 days by Cell Titer-Glo assay. It is filed as cell-based. To be noted: BaF3, 72 h.
Series [9] in a line: Cmax in CD rat at 5 mg/kg, po by LC/MS/MS analysis. It is filed as ADME, organism-based. On the set-up: dose 5 mg/kg, route po. To be noted: in vivo.
Series [10] can be described thus: AUC (0 to last)in CD rat at 5 mg/kg, po by LC/MS/MS analysis. Details: dose 5 mg/kg, route po. It is filed as ADME, organism-based. Conditions: in vivo.
For series [11], the system named is BaF3. Put plainly: In vivo antitumor activity against mouse BaF3 cells expressing EGFR exon 20 insertion (ex20ins) ASV implanted in SCID mouse assessed as tumor regression at 100 mg/kg, po administered for 7 consecutive days. The class given is functional. To be noted: time 7 day.
The subject of series [12] is BaF3. Put plainly: In vivo antitumor activity against mouse BaF3 cells expressing EGFR exon 20 insertion (ex20ins) ASV implanted in SCID mouse assessed as tumor growth inhibition at 50 mg/kg, po administered for 7 consecutive days. It is filed as functional. To be noted: 168 h, time 7 day, read-out: TGI.

Sequence of Epidermal growth factor receptor (P00533 whole entry): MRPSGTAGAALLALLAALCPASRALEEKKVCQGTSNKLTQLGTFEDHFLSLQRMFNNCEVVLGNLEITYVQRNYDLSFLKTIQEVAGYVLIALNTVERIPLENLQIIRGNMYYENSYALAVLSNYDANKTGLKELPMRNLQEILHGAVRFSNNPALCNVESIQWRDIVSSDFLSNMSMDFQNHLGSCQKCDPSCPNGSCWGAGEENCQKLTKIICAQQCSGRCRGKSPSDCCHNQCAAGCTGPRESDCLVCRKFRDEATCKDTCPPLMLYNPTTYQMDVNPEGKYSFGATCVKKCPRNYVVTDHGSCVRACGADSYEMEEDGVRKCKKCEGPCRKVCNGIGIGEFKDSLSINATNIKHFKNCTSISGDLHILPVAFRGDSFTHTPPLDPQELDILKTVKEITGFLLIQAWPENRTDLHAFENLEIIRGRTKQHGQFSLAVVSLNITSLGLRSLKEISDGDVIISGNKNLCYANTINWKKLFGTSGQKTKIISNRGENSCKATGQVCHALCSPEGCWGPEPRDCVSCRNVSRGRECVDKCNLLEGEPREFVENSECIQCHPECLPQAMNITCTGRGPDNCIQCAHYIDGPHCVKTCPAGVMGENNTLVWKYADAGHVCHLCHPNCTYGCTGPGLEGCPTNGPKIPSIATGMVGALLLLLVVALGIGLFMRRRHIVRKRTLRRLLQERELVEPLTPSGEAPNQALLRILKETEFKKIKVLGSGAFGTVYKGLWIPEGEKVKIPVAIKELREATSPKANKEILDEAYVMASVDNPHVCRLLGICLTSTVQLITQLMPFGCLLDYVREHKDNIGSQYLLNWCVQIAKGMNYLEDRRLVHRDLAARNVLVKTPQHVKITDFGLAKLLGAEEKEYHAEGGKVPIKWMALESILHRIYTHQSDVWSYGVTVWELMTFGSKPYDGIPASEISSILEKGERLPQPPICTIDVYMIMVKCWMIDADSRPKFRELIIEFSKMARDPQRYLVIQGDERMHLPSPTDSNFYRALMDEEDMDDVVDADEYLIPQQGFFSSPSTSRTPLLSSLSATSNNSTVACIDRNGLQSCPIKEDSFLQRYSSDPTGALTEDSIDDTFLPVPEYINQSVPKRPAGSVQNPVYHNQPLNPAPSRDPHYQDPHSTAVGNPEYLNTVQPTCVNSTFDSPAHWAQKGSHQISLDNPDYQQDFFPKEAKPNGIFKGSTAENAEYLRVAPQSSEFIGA

As for `C=CC(=O)Nc1cc(Nc2ncc(C#N)c(-c3cn4c5c(cccc35)CCC4)n2)c(OC)cc1N(C)CCN(C)C`, the figures for the Cmax in series [1] and in [5] were 29 ng/mL and 13 ng/mL, respectively. Moreover, the IC50 was 35 nM in series [2], 3.99 nM in series [3] and 9.38 nM in series [8]. Moreover, the AUC(0-t) in series [4] amounted to 200 ng·h/mL; in series [6] it was 58 ng·h/mL. Further, the inhibition in vivo at 100 mg/kg in series [7] was found to be 76%.

Consider `C=CC(=O)Nc1cc(Nc2ncc(-c3cnn(C)c3)c(-c3cn4c5c(cccc35)CCC4)n2)c(OC)cc1N(C)CCN(C)C`, for which the Cmax was found to be 59 ng/mL in series [1] and 90 ng/mL in [9]. Besides, the IC50 in [2] turned out to be 15 nM; in series [8], 16 nM. Besides, the AUC(0-t) in series [4] came out at 105 ng·h/mL; in series [10], 853 ng·h/mL.

Turning to `C=CC(=O)Nc1cc(Nc2ncc(C(=O)OC(C)C)c(-c3cn(C)c4ccccc34)n2)c(OC)cc1N(C)C[C@@H]1CCCN1C`, the Cmax in [1] was determined as 145 ng/mL; in series [5], 107 ng/mL. The IC50 in [2] was 57 nM; in series [3], 8 nM; in [8] it was 14 nM. Further, the Activity in series [11] is recorded as -51%. Besides, the AUC(0-t) in [4] came to 643 ng·h/mL; in [6] it was 1390 ng·h/mL. For the same compound, the inhibition in vivo at 50 mg/kg in [12] was 82%.

The term Cmax denotes the maximum level reached in the sampled fluid or tissue. The IC50 is the concentration that gives 50% inhibition. Usually AUC(0-t) stands for exposure summed from dosing to a finite time, without extrapolation to infinity. The low end stands for low exposure, the high end for high exposure.
